Source: publication PMC10974533, “Cationicity Enhancement on the Hydrophilic Face of Ctriporin Significantly Reduces Its Hemolytic Activity and Improves the Antimicrobial Activity against Antibiotic-Resistant ESKAPE Pathogens” (Toxins, 2024)
Where a SMILES comes first, the peptide text is derived from it.

Key:
Assay type in all cases: cell-based
K. pneumoniae ATCC700603 = assay: MIC, broth dilution, standard strain; conditions: broth dilution (CLSI), MHB, 37 °C, 16–20 h
Method: (§1) The standard strains, including S. aureus ATCC29213 and ATCC25923, E. faecalis ATCC29212, E. coli ATCC25922 and ATCC35218, A. baumannii ATCC19606, K. pneumoniae ATCC700603, and P. aeruginosa ATCC27853, were purchased from the China Center of Type Culture Collection (CCTCC). The clinical strains of the ESKAPE pathogens were isolated from the affiliated hospitals of Hubei University of Medicine. All of them were stored at −80 °C before use. The drug sensitivities of the clinical strains were determined by the Kirby–Bauer test.
(§2) The MICs were determined using the broth dilution method according to the guidelines of the Clinical and Laboratory Standards Institute (CLSI), as described in the previous studies. Briefly, the bacterial cells were incubated in Mueller–Hinton broth (MHB, Oxoid, Basingstoke, UK) at 37 °C and 150 rpm to the mid-growth phase and diluted to achieve a final concentration of 5 × 10^5 colony-forming units per milliliter (CFU/mL). Then, the cells were mixed with each peptide in different concentrations (1, 2, 4, 8, 16, 32, and 64 μg/mL). […] All experiments were repeated at least three times.

E. coli ATCC25922 = assay: MIC, broth dilution, standard strain; conditions: broth dilution (CLSI), MHB, 37 °C, 16–20 h
Method: as §1, §2

E. faecium ATCC29212 = assay: MIC, broth dilution, standard strain; conditions: broth dilution (CLSI), MHB, 37 °C, 16–20 h
Method: as §1, §2

S. aureus ATCC25923 = assay: MIC, broth dilution, standard strain; conditions: broth dilution (CLSI), MHB, 37 °C, 16–20 h
Method: as §1, §2

E. coli ATCC35218 = assay: MIC, broth dilution, standard strain; conditions: broth dilution (CLSI), MHB, 37 °C, 16–20 h
Method: as §1, §2

P. aeruginosa ATCC27853 = assay: MIC, broth dilution, standard strain; conditions: broth dilution (CLSI), MHB, 37 °C, 16–20 h
Method: as §1, §2

A. baumannii ATCC19606 = assay: MIC, broth dilution, standard strain; conditions: broth dilution (CLSI), MHB, 37 °C, 16–20 h
Method: as §1, §2

S. aureus ATCC29213 = assay: MIC, broth dilution, standard strain; conditions: broth dilution (CLSI), MHB, 37 °C, 16–20 h
Method: as §1, §2

[1] = system: human red blood cells (hRBC); assay: Hemolytic activity determination; conditions: 2% (v/v) hRBC, 37 °C, 1 h; for Hemolysis% at 256 μg/mL: 256 μg/mL peptide, OD540, 1% Triton X-100 = 100%, average ± standard error of three independent experiments; for curve of hemolysis% vs. peptide concentration (Figure 2): 0–512 μg/mL peptide, compared in words
Method: Figure 2 Hemolytic activities of Ctriporin and its analogs against human red blood cells (hRBC). Hemolytic activities of Ctriporin (solid circle), CM1 (open circle), CM2 (open square), CM3 (upward triangle), CM4 (downward triangle), CM5 (half solid circle), CM6 (half solid square), and CM7 (half solid triangle), were measured against 2% (v/v) human red blood cells. The peptide concentrations are 0, 2, 4, 8, 16, 32, 64, 128, 256, and 512 μg/mL. The cells treated with 1% Triton X-100 were treated as 100% hemolysis. All experiments were repeated three times, and the data shown are the average ± standard error.
The hemolytic activities of the peptides were determined against human red blood cells (hRBCs). As described, sodium citrate-anticoagulated hRBCs were washed three times with 0.9% sodium chloride and diluted to a final concentration of 4% (v/v). Then, an equal volume of hRBC solutions was mixed with an equal volume of each peptide in a series of concentrations (0, 2, 4, 8, 16, 32, 64, 128, 256, and 512 μg/mL). After co-incubation at 37 °C for 1 h, the degree of hemolysis of the peptides was determined by detecting the release of hemoglobin from the damaged hRBCs by measuring the optical density at 540 nm (OD540). hRBCs in 0.9% sodium chloride and 1% Triton X-100 were considered 0% and 100% hemolysis, respectively. The results shown are the average ± standard error of data derived from three independent experiments. The percent hemolysis was calculated according to the following equation [53, 54]:Hemolysis (%) = 100 × (Asample − Ablank)/(Apositive − Ablank)

standard ESKAPE strains = conditions: broth dilution (CLSI), MHB, 37 °C, 16–20 h; range over all standard strains
Method: The ESKAPE pathogens represent the main threat to public health concerning antimicrobial resistance. Therefore, we first evaluated the antimicrobial activities of Ctriporin and its analogs against the standard ESKAPE strains. The minimum inhibitory concentration (MIC) was chosen as the index for the evaluation of each peptide’s activity. […] Note that the MICs of CM4 and CM7 are 4–32 and 8–32 μg/mL, respectively, indicating the existence of significant bacterial species deviations for the antimicrobial activity of these peptides. In addition, the replacement of specific residues, especially Pro^7, may harm the antimicrobial activities of the peptide.
as §1, §2

[2] = 5 × 10^5 CFU/mL, OD630, repeated at least three times

SMILES | MICs (K. pneumoniae ATCC700603; [2]) [µg/mL] | MICs (K. pneumoniae ATCC700603; value in parentheses) [µM] | MICs (E. coli ATCC25922; [2]) [µg/mL] | MICs (E. coli ATCC25922; value in parentheses) [µM] | MICs (E. faecium ATCC29212; [2]) [µg/mL] | MICs (E. faecium ATCC29212; value in parentheses) [µM] | MICs (S. aureus ATCC25923; [2]) [µg/mL] | MICs (S. aureus ATCC25923; value in parentheses) [µM] | MICs (E. coli ATCC35218; [2]) [µg/mL] | MICs (E. coli ATCC35218; value in parentheses) [µM] | MICs (P. aeruginosa ATCC27853; [2]) [µg/mL] | MICs (P. aeruginosa ATCC27853; value in parentheses) [µM] | MICs (A. baumannii ATCC19606; [2]) [µg/mL] | MICs (A. baumannii ATCC19606; value in parentheses) [µM] | MICs (S. aureus ATCC29213; [2]) [µg/mL] | MICs (S. aureus ATCC29213; value in parentheses) [µM] | Hemolysis% at 256 μg/mL [1] [%] | MICs against the ESKAPE pathogens (range over the standard strains of Table 2) (standard ESKAPE strains) [µg/mL] | curve of hemolysis% vs. peptide concentration (Figure 2) [1]
CC[C@H](C)[C@H](NC(=O)[C@H](C)NC(=O)[C@H](CCCCN)NC(=O)[C@@H]1CCCN1C(=O)[C@@H](NC(=O)[C@H](CC(C)C)NC(=O)[C@H](CCCCN)NC(=O)[C@H](Cc1c[nH]c2ccccc12)NC(=O)[C@H](CC(C)C)NC(=O)[C@@H](N)Cc1ccccc1)[C@@H](C)CC)C(=O)N[C@@H](CCCCN)C(=O)N[C@@H](C)C(=O)N[C@H](C(=O)N[C@H](C(=O)N[C@@H](CO)C(=O)N[C@@H](CC(C)C)C(=O)N[C@H](C(=O)N[C@@H](CCCCN)C(=O)N[C@@H](CCCCN)C(N)=O)[C@@H](C)CC)[C@@H](C)O)C(C)C [CM3] (H-FLWKLIPKAIKAVTSLIKK-NH2; N-terminus assumed) | 8 | 3.6 | 4 | 1.8 | 4 | 1.8 | 4 | 1.8 | 4 | 1.8 | 8 | 3.6 | 4 | 1.8 | 4 | 1.8 | 89.1 ± 12.1 | 4 to 8 | –
CC[C@H](C)[C@H](NC(=O)[C@H](C)NC(=O)[C@H](CCCCN)NC(=O)[C@@H]1CCCN1C(=O)[C@@H](NC(=O)[C@H](CC(C)C)NC(=O)[C@H](CCCCN)NC(=O)[C@H](Cc1c[nH]c2ccccc12)NC(=O)[C@H](CC(C)C)NC(=O)[C@@H](N)Cc1ccccc1)[C@@H](C)CC)C(=O)N[C@@H](CCCCN)C(=O)N[C@@H](CCCCN)C(=O)N[C@H](C(=O)N[C@H](C(=O)N[C@@H](CO)C(=O)N[C@@H](CC(C)C)C(=O)N[C@H](C(=O)N[C@@H](CCCCN)C(=O)N[C@@H](CCCCN)C(N)=O)[C@@H](C)CC)[C@@H](C)O)C(C)C [CM4] (H-FLWKLIPKAIKKVTSLIKK-NH2; N-terminus assumed) | 32 | 14.2 | 8 | 3.6 | 16 | 7.1 | 8 | 3.6 | 16 | 7.1 | 16 | 7.1 | 4 | 1.8 | 4 | 1.8 | 14.0 ± 4.7 | 4 to 32 | decreased dramatically compared with Ctriporin
CC[C@H](C)[C@H](NC(=O)[C@H](C)NC(=O)[C@H](CCCCN)NC(=O)[C@H](CCCCN)NC(=O)[C@@H](NC(=O)[C@H](CC(C)C)NC(=O)[C@H](CCCCN)NC(=O)[C@H](Cc1c[nH]c2ccccc12)NC(=O)[C@H](CC(C)C)NC(=O)[C@@H](N)Cc1ccccc1)[C@@H](C)CC)C(=O)N[C@@H](CCCCN)C(=O)N[C@@H](CCCCN)C(=O)N[C@H](C(=O)N[C@@H](CCCCN)C(=O)N[C@@H](CCCCN)C(=O)N[C@@H](CC(C)C)C(=O)N[C@H](C(=O)N[C@@H](CCCCN)C(=O)N[C@@H](CCCCN)C(N)=O)[C@@H](C)CC)C(C)C [CM7] (H-FLWKLIKKAIKKVKKLIKK-NH2; N-terminus assumed) | 32 | – | 32 | 13.6 | 32 | 13.6 | 32 | 13.6 | 16 | – | 8 | 3.4 | 8 | 3.4 | 32 | 13.6 | 57.5 ± 9.8 | 8 to 32 | positions closely to those of CM3
